The values that follow come from ChEMBL document CHEMBL1201862, “PubChem BioAssay data set” (2004).

The source made the active and inactive calls.

Assay [1] has as its target Histone-lysine N-methyltransferase NSD2 (Homo sapiens, UniProt O96028). Type of assay: biochemical.
A further assay has as its target Beta-galactosidase (Escherichia coli, UniProt Q8VNN2). Put plainly: beta-galactosidase enzyme inhibitors and activators, dose response, artefact control for CCR6 antagonist project, biochemical, E. coli enzyme, set 3 (AID 504712). The assay is classed as functional.
Another assay has as its target Nonstructural protein 1 (Influenza A virus, UniProt Q194T2). Type of assay: functional, Influenza A virus (A/California/07/2009(H1N1)).
For the next assay, the system named is Vero. Put plainly: Vero cell cytotoxicity, cytotoxicity control for flavivirus capping enzyme inhibitors (AID 588742). Type of assay: functional. To be noted: Chlorocebus sabaeus.
Assay [2] can be described thus: HEp-2 cell cytotoxicity, dose response, cytotoxicity control for RSV inhibitor project, HTS (AID 2410). Type of assay: functional. To be noted: human respiratory syncytial virus.
Assay [3] addresses Tyrosyl-DNA phosphodiesterase 2 (Homo sapiens, UniProt O95551). Put plainly: human TDP2 enzyme inhibitors, dose response, biochemical, epi absorbance, IC50 (AID 743297).
In a further assay the target is Genome polyprotein (dengue virus type 2, UniProt P29990). Nature of the assay: Dengue-2 NS5 methyltransferase inhibitors, primary screen, biochemical, confirmation dose response (AID 588689). Type of assay: functional.
A further assay has as its target T1, Caspase-6 (Homo sapiens, UniProt P55212).
T1 sequence (P55212 whole entry): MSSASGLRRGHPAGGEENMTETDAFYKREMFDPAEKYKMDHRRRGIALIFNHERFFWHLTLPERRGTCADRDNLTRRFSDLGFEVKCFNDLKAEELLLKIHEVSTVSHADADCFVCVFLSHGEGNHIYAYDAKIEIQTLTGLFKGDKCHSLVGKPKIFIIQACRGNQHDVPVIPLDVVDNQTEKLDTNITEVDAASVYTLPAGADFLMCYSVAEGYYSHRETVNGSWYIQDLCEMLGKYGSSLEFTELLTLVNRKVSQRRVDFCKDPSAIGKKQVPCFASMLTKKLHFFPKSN
Nature of the assay: human caspase-6 inhibitors, dose response, biochemical, VEID-R110 fluorescence, cherry-pick (AID 720632).

For assay [4], the target named is Eukaryotic translation initiation factor 4E (Mus musculus, UniProt P63073). Put plainly: eIF4E–eIF4G protein interaction inhibitors, dose response, biochemical, TR-FRET (AID 855).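 Note: potency for disrupting eIF4E binding to eIF4GI seen as loss of FRET.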 Type of assay: functional.
The target in another assay is T2, Hexokinase HKDC1 (Homo sapiens, UniProt Q2TB90).
T2 sequence (Q2TB90 whole entry): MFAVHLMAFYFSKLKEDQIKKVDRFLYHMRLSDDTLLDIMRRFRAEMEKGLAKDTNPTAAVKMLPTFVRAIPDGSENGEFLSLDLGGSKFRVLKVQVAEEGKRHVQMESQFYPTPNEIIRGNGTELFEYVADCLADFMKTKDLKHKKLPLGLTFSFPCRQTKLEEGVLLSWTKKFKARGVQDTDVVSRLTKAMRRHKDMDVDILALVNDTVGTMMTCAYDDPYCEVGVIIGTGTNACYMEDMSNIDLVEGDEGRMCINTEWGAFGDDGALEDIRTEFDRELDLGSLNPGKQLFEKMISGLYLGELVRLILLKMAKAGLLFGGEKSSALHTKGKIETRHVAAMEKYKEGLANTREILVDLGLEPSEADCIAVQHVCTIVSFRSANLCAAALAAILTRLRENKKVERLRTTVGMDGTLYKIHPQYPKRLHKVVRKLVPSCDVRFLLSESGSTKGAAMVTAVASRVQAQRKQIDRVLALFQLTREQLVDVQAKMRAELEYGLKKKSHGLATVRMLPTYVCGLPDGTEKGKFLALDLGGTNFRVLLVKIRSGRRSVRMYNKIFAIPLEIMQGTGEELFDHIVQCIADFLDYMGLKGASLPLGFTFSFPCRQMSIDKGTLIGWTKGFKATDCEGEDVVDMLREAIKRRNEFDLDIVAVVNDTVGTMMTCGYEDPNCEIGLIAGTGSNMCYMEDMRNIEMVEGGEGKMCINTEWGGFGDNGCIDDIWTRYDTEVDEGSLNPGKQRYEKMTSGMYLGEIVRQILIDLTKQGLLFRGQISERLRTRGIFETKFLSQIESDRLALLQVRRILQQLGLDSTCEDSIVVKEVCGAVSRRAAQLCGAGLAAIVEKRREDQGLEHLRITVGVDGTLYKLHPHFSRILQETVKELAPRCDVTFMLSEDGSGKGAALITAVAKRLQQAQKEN
Put plainly: SAR analysis of small molecule inhibitors of hexokinase domain containing I (HKDC1). [Related pubchem assays (depositor defined):AID493160, AID493190]. Type of assay: functional.

The target of a further assay is T3, Streptokinase A (Streptococcus pyogenes serotype M1, UniProt P10520).
T3 sequence (P10520 whole entry): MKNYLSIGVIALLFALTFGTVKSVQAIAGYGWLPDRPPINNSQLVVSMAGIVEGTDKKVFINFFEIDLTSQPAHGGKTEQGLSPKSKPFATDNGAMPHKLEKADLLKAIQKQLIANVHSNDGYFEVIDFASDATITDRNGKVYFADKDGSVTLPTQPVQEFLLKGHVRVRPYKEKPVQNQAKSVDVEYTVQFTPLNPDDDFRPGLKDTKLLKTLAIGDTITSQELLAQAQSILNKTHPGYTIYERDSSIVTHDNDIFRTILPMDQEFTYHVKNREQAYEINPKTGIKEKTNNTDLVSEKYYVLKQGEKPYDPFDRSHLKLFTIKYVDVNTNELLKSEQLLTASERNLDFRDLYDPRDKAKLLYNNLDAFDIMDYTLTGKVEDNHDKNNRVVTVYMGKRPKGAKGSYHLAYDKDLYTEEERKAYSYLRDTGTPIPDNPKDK
Nature of the assay: S. pyogenes streptokinase expression inhibitors, potency, dose response, plasminogen activation absorbance, OD405 (AID 1914).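 Note: secreted streptokinase activity via plasminogen activation per viability signal from cell pellet.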 The assay is classed as functional, Streptococcus pyogenes M1 GAS.

Histone-lysine N-methyltransferase NSD2, sequence (O96028 whole entry): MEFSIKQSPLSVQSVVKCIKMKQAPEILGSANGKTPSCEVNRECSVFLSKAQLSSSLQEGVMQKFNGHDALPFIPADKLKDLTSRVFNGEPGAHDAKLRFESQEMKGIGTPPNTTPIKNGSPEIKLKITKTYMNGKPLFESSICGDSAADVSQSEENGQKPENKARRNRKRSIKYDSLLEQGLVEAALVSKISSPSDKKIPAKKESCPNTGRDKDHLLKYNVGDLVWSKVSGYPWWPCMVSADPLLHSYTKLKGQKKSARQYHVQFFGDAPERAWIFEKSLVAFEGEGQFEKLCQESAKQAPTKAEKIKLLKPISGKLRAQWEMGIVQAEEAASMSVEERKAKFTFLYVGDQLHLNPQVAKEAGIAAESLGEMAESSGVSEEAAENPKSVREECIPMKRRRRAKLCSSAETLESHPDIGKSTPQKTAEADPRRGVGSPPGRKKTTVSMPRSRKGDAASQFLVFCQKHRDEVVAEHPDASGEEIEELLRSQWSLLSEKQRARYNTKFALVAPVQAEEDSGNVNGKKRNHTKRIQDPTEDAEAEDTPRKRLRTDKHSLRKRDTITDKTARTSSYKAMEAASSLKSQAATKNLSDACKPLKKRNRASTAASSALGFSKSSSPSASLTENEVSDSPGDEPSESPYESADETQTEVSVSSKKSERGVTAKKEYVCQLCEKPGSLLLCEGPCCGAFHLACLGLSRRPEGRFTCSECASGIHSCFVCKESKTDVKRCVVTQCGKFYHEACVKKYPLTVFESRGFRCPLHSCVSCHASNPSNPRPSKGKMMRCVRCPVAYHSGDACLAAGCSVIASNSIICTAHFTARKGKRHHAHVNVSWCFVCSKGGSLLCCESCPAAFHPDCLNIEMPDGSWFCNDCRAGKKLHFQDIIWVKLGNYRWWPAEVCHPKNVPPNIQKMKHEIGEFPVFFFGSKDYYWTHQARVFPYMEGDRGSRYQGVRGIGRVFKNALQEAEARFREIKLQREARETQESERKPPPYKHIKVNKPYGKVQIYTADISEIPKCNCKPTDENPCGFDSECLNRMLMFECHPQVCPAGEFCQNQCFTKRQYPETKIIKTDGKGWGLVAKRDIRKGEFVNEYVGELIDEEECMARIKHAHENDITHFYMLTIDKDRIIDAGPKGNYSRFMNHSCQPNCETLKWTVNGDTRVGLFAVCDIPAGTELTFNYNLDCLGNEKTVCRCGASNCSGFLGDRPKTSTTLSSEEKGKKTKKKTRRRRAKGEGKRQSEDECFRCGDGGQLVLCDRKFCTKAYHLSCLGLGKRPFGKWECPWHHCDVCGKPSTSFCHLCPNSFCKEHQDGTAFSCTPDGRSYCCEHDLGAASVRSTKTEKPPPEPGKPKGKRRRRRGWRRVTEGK
Tyrosyl-DNA phosphodiesterase 2, sequence (O95551 whole entry): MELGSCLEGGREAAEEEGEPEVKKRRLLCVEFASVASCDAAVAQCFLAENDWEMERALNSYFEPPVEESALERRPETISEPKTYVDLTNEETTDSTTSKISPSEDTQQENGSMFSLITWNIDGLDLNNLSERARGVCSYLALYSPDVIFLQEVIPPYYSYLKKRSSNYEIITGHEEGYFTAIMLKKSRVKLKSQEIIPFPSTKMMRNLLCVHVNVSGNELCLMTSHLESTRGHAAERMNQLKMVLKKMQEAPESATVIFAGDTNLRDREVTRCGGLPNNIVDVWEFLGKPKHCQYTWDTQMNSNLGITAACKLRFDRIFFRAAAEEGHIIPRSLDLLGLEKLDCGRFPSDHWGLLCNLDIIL
Eukaryotic translation initiation factor 4E, sequence (P63073 whole entry): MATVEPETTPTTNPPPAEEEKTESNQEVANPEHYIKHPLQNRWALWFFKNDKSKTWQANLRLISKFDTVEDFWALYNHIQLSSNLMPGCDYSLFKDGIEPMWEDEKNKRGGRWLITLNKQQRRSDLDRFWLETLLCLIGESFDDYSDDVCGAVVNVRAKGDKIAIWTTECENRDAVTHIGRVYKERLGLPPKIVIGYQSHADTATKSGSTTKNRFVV
Nonstructural protein 1, sequence (Q194T2 whole entry): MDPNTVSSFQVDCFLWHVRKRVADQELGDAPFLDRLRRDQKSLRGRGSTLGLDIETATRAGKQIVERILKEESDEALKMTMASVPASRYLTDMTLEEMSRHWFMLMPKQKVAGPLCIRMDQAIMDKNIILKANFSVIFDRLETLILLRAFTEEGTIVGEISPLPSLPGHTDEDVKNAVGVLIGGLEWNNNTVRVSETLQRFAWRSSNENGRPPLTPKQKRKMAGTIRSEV
Genome polyprotein, sequence (P29990 2492-3391 limits assumed): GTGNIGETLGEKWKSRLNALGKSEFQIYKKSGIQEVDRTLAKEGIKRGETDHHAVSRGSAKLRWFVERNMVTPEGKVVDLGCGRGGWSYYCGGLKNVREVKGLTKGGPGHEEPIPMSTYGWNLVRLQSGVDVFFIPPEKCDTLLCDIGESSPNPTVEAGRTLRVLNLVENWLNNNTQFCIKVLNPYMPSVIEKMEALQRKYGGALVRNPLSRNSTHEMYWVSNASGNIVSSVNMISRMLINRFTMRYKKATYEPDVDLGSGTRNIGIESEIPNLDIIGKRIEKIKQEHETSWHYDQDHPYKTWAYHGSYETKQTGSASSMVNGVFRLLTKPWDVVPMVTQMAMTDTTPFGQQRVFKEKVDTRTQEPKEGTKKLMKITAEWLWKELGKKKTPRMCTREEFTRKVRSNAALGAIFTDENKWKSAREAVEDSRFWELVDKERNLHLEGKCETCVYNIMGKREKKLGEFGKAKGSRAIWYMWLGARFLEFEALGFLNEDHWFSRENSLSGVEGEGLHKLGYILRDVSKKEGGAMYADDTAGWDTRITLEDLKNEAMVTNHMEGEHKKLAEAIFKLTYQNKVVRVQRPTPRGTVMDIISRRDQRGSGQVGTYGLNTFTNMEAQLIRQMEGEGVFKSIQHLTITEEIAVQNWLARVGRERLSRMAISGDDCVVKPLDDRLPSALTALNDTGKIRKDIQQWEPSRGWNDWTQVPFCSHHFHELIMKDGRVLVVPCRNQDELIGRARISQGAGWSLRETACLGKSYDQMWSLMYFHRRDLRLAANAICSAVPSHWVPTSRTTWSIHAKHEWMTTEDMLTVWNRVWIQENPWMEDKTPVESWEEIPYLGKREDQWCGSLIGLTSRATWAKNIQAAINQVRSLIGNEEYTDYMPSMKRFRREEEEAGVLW
Beta-galactosidase, sequence (Q8VNN2 whole entry): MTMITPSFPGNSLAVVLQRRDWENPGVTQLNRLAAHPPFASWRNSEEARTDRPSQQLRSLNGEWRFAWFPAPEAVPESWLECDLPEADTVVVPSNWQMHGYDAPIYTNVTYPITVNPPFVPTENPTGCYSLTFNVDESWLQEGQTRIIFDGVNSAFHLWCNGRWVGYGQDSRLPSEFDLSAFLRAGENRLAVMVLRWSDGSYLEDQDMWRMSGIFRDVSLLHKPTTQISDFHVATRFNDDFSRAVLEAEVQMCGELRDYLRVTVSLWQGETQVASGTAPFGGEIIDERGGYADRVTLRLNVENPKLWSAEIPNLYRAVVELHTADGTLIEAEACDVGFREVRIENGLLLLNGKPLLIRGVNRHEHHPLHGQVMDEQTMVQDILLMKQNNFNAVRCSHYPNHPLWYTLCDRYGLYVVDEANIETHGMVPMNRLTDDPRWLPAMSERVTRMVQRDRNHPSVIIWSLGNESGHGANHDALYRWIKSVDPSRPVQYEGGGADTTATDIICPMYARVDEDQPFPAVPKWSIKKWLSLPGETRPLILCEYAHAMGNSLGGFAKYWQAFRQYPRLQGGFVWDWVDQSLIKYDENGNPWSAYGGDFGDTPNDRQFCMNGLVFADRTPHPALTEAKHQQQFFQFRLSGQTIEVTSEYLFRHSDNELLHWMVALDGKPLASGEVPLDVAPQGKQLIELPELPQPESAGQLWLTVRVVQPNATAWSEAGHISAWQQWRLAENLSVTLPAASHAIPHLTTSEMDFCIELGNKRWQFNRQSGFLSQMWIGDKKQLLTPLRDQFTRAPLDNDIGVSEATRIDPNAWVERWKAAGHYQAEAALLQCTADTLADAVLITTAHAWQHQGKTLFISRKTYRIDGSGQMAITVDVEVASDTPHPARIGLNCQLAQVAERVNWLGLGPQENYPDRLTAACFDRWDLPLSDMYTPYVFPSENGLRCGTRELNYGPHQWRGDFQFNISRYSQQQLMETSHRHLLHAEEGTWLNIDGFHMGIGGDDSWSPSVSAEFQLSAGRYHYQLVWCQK

Consider `COC(=O)c1ccccc1NC1=C/C(=N\S(=O)(=O)c2ccc(C(=O)O)cc2)c2ccccc2C1=O`, for which the AC50 in assay [1] was 0.557 µM (active). Besides, the results for the IC50 at Beta-galactosidase and on Nonstructural protein 1 were > 66.6 µM (inactive) and 31.8 µM (active), respectively.

In the case of `NC(=O)C1CCN(C2=C(Cl)C(=O)c3ccccc3C2=O)CC1`, the figures for the 50% cytotoxic concentration (CC50) (in the assay with Vero; in [2]) were 22.3 µM (active) and 7.88 µM (active), respectively. The values for the IC50 (in assay [3]; at Genome polyprotein) were 13.6 µM (inactive) and 26 µM (active), respectively.

In the case of `O=c1c2ccccc2nc(/C=C/c2cccnc2)n1Cc1ccccc1`, the AC50 at Caspase-6 was 11.8 µM (active). Also, the IC50 in assay [4] is 5.77 µM (active); at Hexokinase HKDC1 it was > 80 µM (inactive).

For the compound `O=C(O)c1ccc(N/N=C/c2ccc(OC(=O)c3ccccc3Cl)cc2)cc1`, on Streptokinase A, the half-maximal effective concentration (EC50) was > 150 µM (not active).
